Reference: patent US9499495B2, “Quinazolines and azaquinazolines as dual inhibitors of RAS/RAF/MEK/ERK and PI3K/AKT/PTEN/mTOR pathways” (Asana Biosciences, LLC, priority 2013, dated 2016)

Tests used:
PI3Kα = target: T1, PI3Kα (Homo sapiens, UniProt P42336); assay: PI3 Kinase alpha TR-FRET assay; assay type: biochemical
T1 construct: made in house; host or cells: SF9 cells
In short: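 Purified Sf9-expressed p110/p85α (5 ng) was pre-incubated with compound and PIP2 at rt, then ATP was added (PIP2 and ATP both 40 μM) for a 30 min reaction. PIP3 was detected by TR-FRET displacement of biotin-PIP3, and IC50 was taken from dose-response curves of the 665/615 nm emission ratio.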

A375 cells = assay: XTT assay for cell viability, A375 cells; assay type: cell-based; conditions: Homo sapiens, A-375, 72 h
In short: (§1)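 RKO and A375 cells seeded at 1000-2000/well overnight, then exposed to compound for 72 h at 37° C., 5% CO2. XTT (1 mg/ml)/PMS (25 μM) added for 2-3 h; absorbance at 450 nm. Growth relative to DMSO control (100%); GI50 from sigmoidal dose-response fit.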

pS6RP in RKO cells = assay: In Cell Western (ICW) assay, pS6RP in RKO cells; assay type: cell-based; conditions: Homo sapiens, 3 h treatment
In short: (§2)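 RKO or A375 cells were exposed to compounds for 3 h at 37 °C, then fixed and stained in-cell with antibodies to pERK1/2 (T202/Y204), pS6RP or pAKT T308, followed by a Eu-labelled secondary. Time-resolved fluorescence (340/615 nm) was normalized to Hoechst, and IC50 values were fitted sigmoidally against DMSO as 0% inhibition.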

pAKT (T308) in RKO cells = assay: In Cell Western (ICW) assay, pAKT-T308 in RKO cells; assay type: cell-based; conditions: Homo sapiens, 3 h treatment
Description: Cell lines A375, A2058 and RKO obtained from the ATCC as provided above, were grown, and after attaining ˜80% confluency were trypsinized, centrifuged and resuspended in fresh media. The cells were seeded at the specified density (20,000 to 50,000) in a 96-well format black-well clear bottom plate (Corning) and incubated overnight at 37° C. in a 5% CO2 incubator. The next day, compound dilutions of test compounds were prepared in 100% DMSO followed by dilutions in respective media. Treatment of test compounds was performed for 3 h at 37° C. in 5% CO2 incubator. Following 3 h drug treatment, the conditional media was discarded and the cells were washed once with cPBS (PBS containing 0.1% magnesium chloride hexahydrate and 0.1% anhydrous calcium chloride) and fixed with 4% paraformaldehyde in cPBS for 1 h at rt. After fixing, the cells were given three washes using cPBST (cPBS containing 0.1% Triton™ X-100 reagent) and then blocked using blocking solution (5% skimmed milk powder or 5% BSA prepared in cPBST) for 2 h at rt with shaking at 300 rpm. The cells were again washed thrice with cPBST and incubated with primary antibody phospho-p44/42 MAPK(Erk1/2)(Thr202/204) antibody (Cell Signaling, Catalog # 9101L), phospho S6 ribosomal protein (Cell Signaling, Catalog #4858L), phospho AKT (Thr 308) (Cell Signaling, Catalog #9275) or phospho AKT (Ser 473) (Cell Signaling, Catalog #4060L) in specified dilutions (1:500-1:2500), prepared in respective blocking solutions, in a racker overnight at 4° C. The next day, the cells were washed with 1× Delfia® wash buffer (4×1 wash) and incubated with secondary antibody (Delfia®-Eu-N1 labeled anti-rabbit antibody; PerkinElmer, Catalog #AD0105; dilutions: 1:2000 to 1:6000 in Delfia® assay buffer (PerkinElmer, Catalog #1244-111)) for 2 h at rt in the dark at 300 rpm. The cells were then given four washes with 1× Delfia® wash buffer and incubated with Wallac Delfia® Enhancement solution (100 μL; PerkinElmer, Catalog #1244-105) for 20 min at rt in the dark at 300 rpm. The fluorescence emission was then read at 615 nm with an excitation wavelength of 340 nm using a Victor V5 Fluorometer (Perkin Elmer, US). The cells were then washed once with 1×cPBS and incubated with 100 μL of 0.5 mg/mL of Hoechst 33258 dye prepared in cPBS and read at 460 nm with 355 nm excitation, thereby evaluating the correction factor.
The % inhibition for the test compounds of formula (I) (new chemical entities (NCEs)) was calculated keeping DMSO control as 0% and the IC50 values were determined using sigmoidal dose response curve fit in GraphPad Prism® v5 software.

RKO cells = assay: XTT assay for cell viability, RKO cells; assay type: cell-based; conditions: Homo sapiens, 72 h
In short: as §1

pERK in RKO cells = assay: In Cell Western (ICW) assay, pERK in RKO cells; assay type: cell-based; conditions: Homo sapiens, 3 h treatment
In short: as §2

T1 sequence (P42336 whole entry, species assumed): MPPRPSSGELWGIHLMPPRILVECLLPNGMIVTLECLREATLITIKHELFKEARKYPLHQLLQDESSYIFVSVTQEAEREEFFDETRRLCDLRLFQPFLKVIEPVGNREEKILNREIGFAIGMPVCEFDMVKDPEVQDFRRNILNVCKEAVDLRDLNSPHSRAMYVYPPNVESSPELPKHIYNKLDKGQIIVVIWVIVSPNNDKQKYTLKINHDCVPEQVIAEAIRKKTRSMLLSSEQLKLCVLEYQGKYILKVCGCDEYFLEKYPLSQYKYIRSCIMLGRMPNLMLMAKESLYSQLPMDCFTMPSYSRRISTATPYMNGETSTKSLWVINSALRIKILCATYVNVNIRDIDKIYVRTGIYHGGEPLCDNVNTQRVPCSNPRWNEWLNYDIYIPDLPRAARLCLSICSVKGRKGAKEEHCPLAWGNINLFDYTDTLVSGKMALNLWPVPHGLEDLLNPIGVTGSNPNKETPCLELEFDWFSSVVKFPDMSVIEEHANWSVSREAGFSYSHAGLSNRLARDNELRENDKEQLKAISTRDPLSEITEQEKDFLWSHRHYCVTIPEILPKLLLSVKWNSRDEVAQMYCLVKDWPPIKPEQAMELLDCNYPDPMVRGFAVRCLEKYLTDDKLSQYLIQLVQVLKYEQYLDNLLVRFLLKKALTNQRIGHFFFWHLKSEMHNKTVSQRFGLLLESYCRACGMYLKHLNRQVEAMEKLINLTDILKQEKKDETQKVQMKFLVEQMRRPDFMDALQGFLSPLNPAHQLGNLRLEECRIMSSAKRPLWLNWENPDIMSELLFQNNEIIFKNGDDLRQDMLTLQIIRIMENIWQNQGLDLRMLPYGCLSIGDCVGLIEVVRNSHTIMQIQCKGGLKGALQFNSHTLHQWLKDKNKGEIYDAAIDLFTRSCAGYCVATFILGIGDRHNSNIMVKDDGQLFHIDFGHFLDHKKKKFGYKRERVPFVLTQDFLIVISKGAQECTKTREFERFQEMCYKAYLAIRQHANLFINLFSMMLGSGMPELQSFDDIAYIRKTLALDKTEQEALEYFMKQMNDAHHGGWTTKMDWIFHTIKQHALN
T1 sequence (P27986 whole entry partner, species assumed): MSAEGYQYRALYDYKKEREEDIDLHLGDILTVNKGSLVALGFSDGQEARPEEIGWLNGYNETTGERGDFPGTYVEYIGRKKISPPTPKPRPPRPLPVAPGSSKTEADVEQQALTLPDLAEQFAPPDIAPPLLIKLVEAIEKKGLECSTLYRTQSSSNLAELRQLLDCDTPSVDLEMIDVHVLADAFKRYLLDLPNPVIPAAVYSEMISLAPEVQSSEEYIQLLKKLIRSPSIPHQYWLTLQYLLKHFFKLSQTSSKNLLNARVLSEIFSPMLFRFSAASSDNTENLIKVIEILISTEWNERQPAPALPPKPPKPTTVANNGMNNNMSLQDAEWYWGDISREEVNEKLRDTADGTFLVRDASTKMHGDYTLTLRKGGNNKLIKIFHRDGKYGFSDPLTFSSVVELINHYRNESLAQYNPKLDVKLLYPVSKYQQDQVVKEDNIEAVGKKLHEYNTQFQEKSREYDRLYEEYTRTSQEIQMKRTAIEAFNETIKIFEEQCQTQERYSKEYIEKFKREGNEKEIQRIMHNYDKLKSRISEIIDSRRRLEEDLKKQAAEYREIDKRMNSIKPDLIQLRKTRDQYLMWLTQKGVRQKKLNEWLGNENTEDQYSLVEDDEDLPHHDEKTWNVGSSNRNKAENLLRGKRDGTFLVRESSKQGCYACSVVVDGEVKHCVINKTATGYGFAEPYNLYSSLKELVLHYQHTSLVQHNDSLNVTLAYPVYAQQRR

Row | SMILES | IC50 (PI3Kα) [nM] | IC50 (A375 cells) [nM] | IC50 (pS6RP in RKO cells) [nM] | IC50 (pAKT (T308) in RKO cells) [nM] | IC50 (pERK in RKO cells) [nM] | IC50 (RKO cells) [nM]
1 | COc1cc(-c2c(F)ccc(NS(=O)(=O)CCCF)c2F)cc2c(N3CCOCC3)nc(-c3ccc(N)nc3)nc12 [Example 79, N-(3-(2-(6-aminopyridin-3-yl)-8-methoxy-4-morpholinoquinazolin-6-yl)-2,4-difluorophenyl)-3-fluoropropane-1-sulfonamide] | 100 to 1000 | 1 to 100 | 100 to 1000 | 100 to 1000 |  | 100 to 1000
2 | Nc1ncc(-c2nc(N3CCOCC3)c3nc(-c4cccc(NS(=O)(=O)CCCF)c4F)ccc3n2)cn1 [Example 87, N-(3-(2-(2-aminopyrimidin-5-yl)-4-morpholinopyrido[3,2-d]pyrimidin-6-yl)-2-fluorophenyl)-3-fluoropropane-1-sulfonamide] | 1 to 100 | 100 to 1000 | 100 to 1000 | 100 to 1000 |  | 100 to 1000
3 | Nc1ccc(-c2nc(N3CCOCC3)c3nc(-c4cccc(NS(=O)(=O)CCCF)c4F)ccc3n2)cn1 [Example 88, N-(3-(2-(6-aminopyridin-3-yl)-4-morpholinopyrido[3,2-d]pyrimidin-6-yl)-2-fluorophenyl)-3-fluoropropane-1-sulfonamide] | 1 to 100 | 100 to 1000 | 100 to 1000 | 100 to 1000 | 100 to 1000 | 100 to 1000
4 | Nc1ccc(-c2nc(N3CCOCC3)c3nc(-c4cccc(NS(=O)(=O)c5cc(F)ccc5F)c4F)ccc3n2)cn1 [Example 92, N-(3-(2-(6-aminopyridin-3-yl)-4-morpholinopyrido[3,2-d]pyrimidin-6-yl)-2-fluorophenyl)-2,5-difluorobenzenesulfonamide] | 1 to 100 | 1 to 100 |  | 1000 to 10000 | 100 to 1000 | 1000 to 10000
5 | Nc1ncc(-c2nc(N3CCOCC3)c3nc(-c4cccc(NS(=O)(=O)c5cc(F)ccc5F)c4F)ccc3n2)cn1 [Example 93, N-(3-(2-(2-aminopyrimidin 5-yl)-4-morpholinopyrido[3,2-d]pyrimidin-6-yl)-2-fluorophenyl)-2,5-difluorobenzenesulfonamide] | 1 to 100 | 100 to 1000 |  | 1000 to 10000 |  | 100 to 1000
6 | CNc1ccc(-c2nc(N3CCOCC3)c3nc(-c4cccc(NS(=O)(=O)CCCF)c4F)ccc3n2)cn1 [Example 113, 3-fluoro-N-(2-fluoro-3-(2-(6-(methylamino)pyridin-3-yl)-4-morpholinopyrido[3,2-d]pyrimidin-6-yl)phenyl)propane-1-sulfonamide] | 1 to 100 | 100 to 1000 |  | 1000 to 10000 |  | 100 to 1000

More lines, main results first:

Row | IC50 (PI3Kα) [nM] | IC50 (A375 cells) [nM] | IC50 (pS6RP in RKO cells) [nM] | IC50 (pAKT (T308) in RKO cells) [nM] | IC50 (pERK in RKO cells) [nM] | SMILES | IC50 (RKO cells) [nM]
7 | 1 to 100 | 100 to 1000 | 100 to 1000 | 100 to 1000 | 1 to 100 | Nc1cc(C(F)(F)F)c(-c2nc(N3CCOCC3)c3nc(-c4cccc(NS(=O)(=O)CCCF)c4F)ccc3n2)cn1 [Example 94, N-(3-(2-(6-amino-4-(trifluoromethyl)pyridin-3-yl)-4-morpholinopyrido[3,2-d]pyrimidin-6-yl)-2-fluorophenyl)-3-fluoropropane-1-sulfonamide] | 100 to 1000
8 | 1 to 100 | 100 to 1000 | 1 to 100 | 100 to 1000 | 100 to 1000 | Cc1cc(N)ncc1-c1nc(N2CCOCC2)c2nc(-c3cccc(NS(=O)(=O)CCCF)c3F)ccc2n1 [Example 101, N-(3-(2-(6-amino-4-methylpyrtdin-3-yl)-4-morpholinopyrldo[3,2-d]pyrimidin-6-yl)-2-fluorophenyl)-3-fluoropropane-1-sulfonamide] | 100 to 1000
9 | 1 to 100 | 100 to 1000 |  | 1000 to 10000 | 100 to 1000 | C[C@H]1COCCN1c1nc(-c2cnc(N)cc2C(F)(F)F)nc2ccc(-c3cccc(NS(=O)(=O)CCCF)c3F)nc12 [Example 108, (S)-N-(3-(2-(6-amino-4-(trifluoromethyl)pyrldin-3-yl)-4-(3-methylmorpholino)pyrido[3,2-d]pyrimidin-6-yl)-2-fluorophenyl)-3-fluoropropane-1-sulfonamide] | 100 to 1000
